Experimental data taken from ChEMBL document CHEMBL5620353, “Novel antifungal triazoles with alkynyl-methoxyl side chains: Design, synthesis, and biological activity evaluation” (Eur J Med Chem, 2023).
≈ marks a conversion by molar mass, not a printed value. Calls of active or inactive are those of the source. The rule behind the calls is not given here.

Legend:
[1] = Cytotoxicity against HUVEC cells assessed as cell survival at 128 ug/ml incubated for 24 hrs by CCK-8 assay relative to control; format: toxicity, cell-based; conditions: human, at 128 µg/mL, read-out: Survival
[2] = system: Candida albicans; assay: Antifungal activity against Candida albicans 904 assessed as inhibition of fungal growth incubated for 48 hrs by spot assay; format: functional, organism-based; conditions: dose 0.5-1 µg/ml
[3] = system: Cryptococcus neoformans; assay: Antifungal activity against Cryptococcus neoformans 32,609 assessed as inhibition of fungal growth incubated for 72 hrs by microbroth dilution method; format: functional
[4] = system: Nakaseomyces glabratus; assay: Potency index, ratio of fluconazole MIC to test compound MIC for antifungal activity against Candida glabrata 537 assessed as inhibition of fungal growth incubated for 48 hrs by microbroth dilution method; format: functional
[5] = Cytotoxicity against HUVEC cells assessed as cell survival at <16 ug/ml incubated for 24 hrs by CCK-8 assay relative to control; format: toxicity, cell-based; conditions: human, dose < 16 µg/ml, read-out: Survival
[6] = system: [Candida] auris; assay: Antifungal activity against fluconazole-resistant Candida auris 918 assessed as inhibition of fungal growth incubated for 48 hrs by microbroth dilution method; format: functional; conditions: Candidozyma auris
[7] = system: Candida albicans; assay: Antifungal activity against Candida albicans SC5314 assessed as reduction in fungal viability incubated for 48 hrs by spot assay; format: functional, organism-based; conditions: dose 0.5-1 µg/ml
[8] = system: Candida parapsilosis; assay: Antifungal activity against Candida parapsilosis 22019 assessed as reduction in fungal viability incubated for 48 hrs by spot assay; format: functional, organism-based; conditions: dose 0.5-1 µg/ml
[9] = system: Saccharomyces cerevisiae; assay: Antifungal activity against recombinant Saccharomyces cerevisiae Y570 overexpressing CaCdr1 assessed as inhibition of fungal growth incubated for 48 hrs by microbroth dilution method; format: functional
[10] = system: Candida albicans; assay: Antifungal activity against Candida albicans SC5314 assessed as inhibition of fungal growth incubated for 48 hrs by microbroth dilution method; format: functional
[11] = system: Candida parapsilosis; assay: Antifungal activity against Candida parapsilosis 22019 assessed as inhibition of fungal growth incubated for 48 hrs by spot assay; format: functional, organism-based; conditions: dose 0.5-1 µg/ml
[12] = system: Cryptococcus neoformans; assay: Antifungal activity against Cryptococcus neoformans 32,609 assessed as reduction in fungal growth and viability at 0.5 to 1 ug/ml incubated for 48 hrs by spot assay; format: functional, organism-based; conditions: dose 0.5-1 µg/ml
[13] = biological target: T1, Lanosterol 14-alpha demethylase (Candida albicans (strain SC5314 / ATCC MYA-2876) (Yeast), UniProt P10613); assay: Inhibition of Lanosterol 14-alpha demethylase in Candida albicans SC5314 assessed as reduction in ergosterol level at 8 ug/ml incubated for 8 hrs by GC-MS analysis relative to control; conditions: at 8 µg/mL
T1 sequence (P10613 whole entry): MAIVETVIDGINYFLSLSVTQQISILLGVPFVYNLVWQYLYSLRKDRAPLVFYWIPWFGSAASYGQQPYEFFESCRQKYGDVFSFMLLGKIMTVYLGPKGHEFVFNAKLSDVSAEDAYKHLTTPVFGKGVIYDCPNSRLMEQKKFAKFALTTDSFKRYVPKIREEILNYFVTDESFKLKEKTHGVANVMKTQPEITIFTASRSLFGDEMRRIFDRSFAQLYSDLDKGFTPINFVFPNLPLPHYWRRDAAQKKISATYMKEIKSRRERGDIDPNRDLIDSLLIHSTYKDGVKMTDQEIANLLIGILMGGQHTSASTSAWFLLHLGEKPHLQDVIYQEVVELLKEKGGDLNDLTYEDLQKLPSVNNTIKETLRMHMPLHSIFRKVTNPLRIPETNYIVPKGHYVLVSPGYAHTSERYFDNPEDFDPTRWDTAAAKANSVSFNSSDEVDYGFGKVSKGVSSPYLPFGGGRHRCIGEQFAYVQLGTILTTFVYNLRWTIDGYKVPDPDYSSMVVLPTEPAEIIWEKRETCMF

[14] = system: [Candida] auris; assay: Antifungal activity against Candida auris 891 assessed as inhibition of fungal growth incubated for 48 hrs by spot assay; format: functional, organism-based; conditions: Candidozyma auris, dose 0.5-1 µg/ml
[15] = system: Nakaseomyces glabratus; assay: Antifungal activity against Candida glabrata 537 assessed as reduction in fungal viability incubated for 48 hrs by spot assay; format: functional, organism-based; conditions: dose 0.5-1 µg/ml
[16] = system: [Candida] auris; assay: Antifungal activity against Candida auris 891 assessed as reduction in fungal viability incubated for 48 hrs by spot assay; format: functional, organism-based; conditions: Candidozyma auris, dose 0.5-1 µg/ml
[17] = Selectivity index, ratio of IC50 for HUVEC cells to MIC for Candida glabrata 537; format: toxicity; conditions: human, HUVEC cells versus Candida glabrata 537; read-out: Selectivity Index
[18] = system: Candida albicans; assay: Antifungal activity against Candida albicans 904 assessed as reduction in fungal viability incubated for 48 hrs by spot assay; format: functional, organism-based; conditions: dose 0.5-1 µg/ml
[19] = system: [Candida] auris; assay: Antifungal activity against fluconazole-resistant Candida auris 919 assessed as inhibition of fungal growth incubated for 48 hrs by microbroth dilution method; format: functional; conditions: Candidozyma auris
[20] = system: Saccharomyces cerevisiae; assay: Antifungal activity against recombinant Saccharomyces cerevisiae Y2300 overexpressing ScErg11 assessed as inhibition of fungal growth incubated for 48 hrs by microbroth dilution method; format: functional
[21] = system: Candida albicans; assay: Antifungal activity against Candida albicans SC5314 assessed as inhibition of fungal growth incubated for 48 hrs by spot assay; format: functional, organism-based; conditions: dose 0.5-1 µg/ml
[22] = system: Candida albicans; assay: Antifungal activity against Candida albicans SC5314 assessed as inhibition of fungal growth at 0.0625 ug/ml measured after 12 hrs by optical density based method; format: functional
[23] = system: Nakaseomyces glabratus; assay: Antifungal activity against Candida glabrata 537 assessed as inhibition of fungal growth incubated for 48 hrs by spot assay; format: functional, organism-based; conditions: dose 0.5-1 µg/ml
[24] = system: Pichia kudriavzevii; assay: Antifungal activity against Candida krusei 4996 assessed as inhibition of fungal growth incubated for 48 hrs by microbroth dilution method; format: functional
[25] = system: Candida albicans; assay: Antifungal activity against Candida albicans SC5314 infected in Galleria mellonella larvae assessed as delay in time of larval death at 8 mg/kg measured after 10 days post inoculation; format: functional, organism-based; conditions: time 10.0 day
[26] = system: Candida albicans; assay: Antifungal activity against Candida albicans SC5314 infected in Galleria mellonella larvae assessed as increase in survival rate at 2 mg/kg measured after 10 days post inoculation; format: functional, organism-based; conditions: time 10.0 day
[27] = biological target: T1, Lanosterol 14-alpha demethylase; assay: Inhibition of Lanosterol 14-alpha demethylase in Candida albicans SC5314 assessed as increase in obtusifoliol level at 8 ug/ml incubated for 8 hrs by GC-MS analysis relative to control; set-up: scale not given: the % may be the effect or the level left; conditions: at 8 µg/mL
[28] = system: Candida albicans; assay: Antifungal activity against Candida albicans assessed as increase in pseudohyphae at 16 ug/ml; format: functional, organism-based; conditions: dose 16.0 µg/ml
[29] = system: Candida albicans; assay: Antifungal activity against Candida albicans SC5314 infected in Galleria mellonella larvae assessed as prolongation of survival time at 2 mg/kg measured after 10 days post inoculation; format: functional, organism-based; conditions: time 10.0 day
[30] = biological target: T1, Lanosterol 14-alpha demethylase; assay: Inhibition of Lanosterol 14-alpha demethylase in Candida albicans SC5314 assessed as increase in 14alpha-methylfecosterol level at 8 ug/ml incubated for 8 hrs by GC-MS analysis relative to control; set-up: scale not given: the % may be the effect or the level left; conditions: at 8 µg/mL
[31] = system: Candida albicans; assay: Antifungal activity against Candida albicans SC5314 infected in Galleria mellonella larvae assessed as larval survival rate at 8 mg/kg measured after 10 days post inoculation relative to control; format: functional; conditions: SC5314, 240 h, time 10 day
[32] = biological target: T1, Lanosterol 14-alpha demethylase; assay: Inhibition of Lanosterol 14-alpha demethylase in Candida albicans SC5314 assessed as increase in lanosterol level at 8 ug/ml incubated for 8 hrs by GC-MS analysis (reference value: 2.79%); set-up: scale not given: the % may be the effect or the level left; conditions: at 8 µg/mL
[33] = system: Candida albicans; assay: Antifungal activity against Candida albicans SC5314 infected in Galleria mellonella larvae assessed as median survival time at 8 mg/kg measured after 10 days post inoculation; format: functional; conditions: time 10 day
[34] = system: Candida albicans; assay: Antifungal activity against Candida albicans assessed as reduction in hyphal length at 16 ug/ml; format: functional, organism-based; conditions: dose 16.0 µg/ml
[35] = system: Candida albicans; assay: Antifungal activity against Candida albicans SC5314 assessed as inhibition of fungal growth at 16 ug/ml measured after 24 hrs by optical density based method; format: functional
[36] = biological target: T1, Lanosterol 14-alpha demethylase; assay: Inhibition of Lanosterol 14-alpha demethylase in Candida albicans SC5314 assessed as increase in eburicol level at 8 ug/ml incubated for 8 hrs by GC-MS analysis relative to control; set-up: scale not given: the % may be the effect or the level left; conditions: at 8 µg/mL
[37] = biological target: T1, Lanosterol 14-alpha demethylase; assay: Inhibition of Lanosterol 14-alpha demethylase in Candida albicans SC5314 assessed as remaining ergosterol level at 8 ug/ml incubated for 8 hrs by GC-MS analysis (reference value: 89.76%); conditions: at 8 µg/mL

SMILES	viability at 24 h, 128 ug/ml [1] [%]	Activity [2]	MIC [3] [µg/mL]	Ratio [4]	viability at 24 h [5] [%]	MIC [6] [µg/mL]	Activity [7]	Activity [8]	MIC [9] [µg/mL]	MIC [10] [µg/mL]	Activity [11]	Activity [12]	inhibition (INH) [13]	Activity [14]	Activity [15]	selectivity ratio [17]	MIC [19] [µg/mL]	MIC [20] [µg/mL]	inhibition at 0.0625 µg/mL [22] [%]	MIC [24] [µg/mL]	other results
C[C@@H](OCC#Cc1ccc(F)cc1F)[C@](O)(Cn1cncn1)c1ccc(F)cc1F	36	Dose-Dependent Effect	0.5 (≈ 1.19 µM)	>=8	> 80	16 (≈ 38.2 µM)	Dose-Dependent Effect	Dose-Dependent Effect	32	≤ 0.125	Dose-Dependent Effect	Active	~ 100%	Dose-Dependent Effect	Dose-Dependent Effect	> 500	16 (≈ 38.2 µM)	0.063	100	4 (≈ 9.54 µM)	Activity [16]: Dose-Dependent Effect; Activity [18]: Dose-Dependent Effect; Activity [21]: Dose-Dependent Effect; Activity [23]: Dose-Dependent Effect
C[C@@H](OCC#Cc1ccc(C#N)cc1)[C@](O)(Cn1cncn1)c1ccc(F)cc1F	34.9	Dose-Dependent Effect	0.5 (≈ 1.22 µM)	>=8	> 80	32 (≈ 78.4 µM)	Dose-Dependent Effect	Dose-Dependent Effect	16	≤ 0.125	Dose-Dependent Effect	Active	~ 100%	Dose-Dependent Effect	Dose-Dependent Effect	> 500	16 (≈ 39.2 µM)	0.031	100	8 (≈ 19.6 µM)	Activity [25]: Active; Activity [26]: inactive; Activity [27]: 12.82%; Activity [28]: Active; Activity [29]: Active; Activity [30]: 36.87%; survival at 8 mg/kg [31]: 40%; Activity [32]: 37.18%; MST [33]: 10 days; Activity [16]: Dose-Dependent Effect; Activity [34]: Active; inhibition at 16 µg/mL [35]: 100%; Activity [18]: Dose-Dependent Effect; Activity [36]: 13.13%; Activity [21]: Dose-Dependent Effect; Activity [23]: Dose-Dependent Effect
C[C@@H](OCC#Cc1ccncc1)[C@](O)(Cn1cncn1)c1ccc(F)cc1F	28.7	–	≤ 0.125	>=8	> 80	16 (≈ 41.6 µM)	–	–	4	≤ 0.125	–	Active	–	–	–	> 500	16 (≈ 41.6 µM)	0.031	100	4 (≈ 10.4 µM)	Activity [37]: 1.1%
